# Source: ChEMBL document CHEMBL3045645, “Organophosphorus derivatives containing isatin-3-hydrazones as chemotherapeutants against fungal pathogens of sugarcane” (2008)
# Assays:
# Type in all cases: functional
# Curvularia pallescens [1] = assay: Antifungal activity against Cochliobolus pallescens assessed as mycelial growth inhibition at 28 +/-2 degC after 7 days by food poison technique; conditions: 168 h
# Colletotrichum falcatum [2] = assay: Antifungal activity against Glomerella tucumanensis assessed as mycelial growth inhibition at 100 ppm at 28 +/-2 degC after 7 days by food poison technique; conditions: 168 h, read-out: GI
# Colletotrichum falcatum [3] = assay: Ratio of mancozeb MIC to compound MIC for Glomerella tucumanensis after 7 days by food poison technique
# Fusarium oxysporum [4] = assay: Antifungal activity against Fusarium oxysporum assessed as mycelial growth inhibition at 1000 ppm at 28 +/-2 degC after 7 days by food poison technique; conditions: 168 h, read-out: GI
# Colletotrichum falcatum [5] = assay: Antifungal activity against Glomerella tucumanensis assessed as mycelial growth inhibition at 10 ppm at 28 +/-2 degC after 7 days by food poison technique; conditions: 168 h, read-out: GI
# Fusarium oxysporum [6] = assay: Ratio of thiophanate MIC to compound MIC for Fusarium oxysporum after 7 days by food poison technique
# Curvularia pallescens [7] = assay: Ratio of copper oxychloride MIC to compound MIC for Cochliobolus pallescens after 7 days by food poison technique
# Fusarium oxysporum [8] = assay: Antifungal activity against Fusarium oxysporum assessed as mycelial growth inhibition at 100 ppm at 28 +/-2 degC after 7 days by food poison technique; conditions: 168 h, read-out: GI
# Fusarium oxysporum [9] = assay: Antifungal activity against Fusarium oxysporum assessed as mycelial growth inhibition at 28 +/-2 degC after 7 days by food poison technique; conditions: 168 h
# Colletotrichum falcatum [10] = assay: Antifungal activity against Glomerella tucumanensis assessed as mycelial growth inhibition at 28 +/-2 degC after 7 days by food poison technique; conditions: 168 h
# Curvularia pallescens [11] = assay: Ratio of mancozeb MIC to compound MIC for Cochliobolus pallescens after 7 days by food poison technique
# Colletotrichum falcatum [12] = assay: Ratio of carbendazim MIC to compound MIC for Glomerella tucumanensis after 7 days by food poison technique
# Curvularia pallescens [13] = assay: Ratio of thiophanate MIC to compound MIC for Cochliobolus pallescens after 7 days by food poison technique
# Curvularia pallescens [14] = assay: Antifungal activity against Cochliobolus pallescens assessed as mycelial growth inhibition at 10 ppm at 28 +/-2 degC after 7 days by food poison technique; conditions: 168 h, read-out: GI
# Fusarium oxysporum [15] = assay: Ratio of carbendazim MIC to compound MIC for Fusarium oxysporum after 7 days by food poison technique
# Fusarium oxysporum [16] = assay: Ratio of copper oxychloride MIC to compound MIC for Fusarium oxysporum after 7 days by food poison technique
# Colletotrichum falcatum [17] = assay: Ratio of thiophanate MIC to compound MIC for Glomerella tucumanensis after 7 days by food poison technique
# Fusarium oxysporum [18] = assay: Ratio of mancozeb MIC to compound MIC for Fusarium oxysporum after 7 days by food poison technique
# Curvularia pallescens [19] = assay: Ratio of carbendazim MIC to compound MIC for Cochliobolus pallescens after 7 days by food poison technique
# Colletotrichum falcatum [20] = assay: Antifungal activity against Glomerella tucumanensis assessed as mycelial growth inhibition at 1000 ppm at 28 +/-2 degC after 7 days by food poison technique; conditions: 168 h, read-out: GI
# Colletotrichum falcatum [21] = assay: Ratio of copper oxychloride MIC to compound MIC for Glomerella tucumanensis after 7 days by food poison technique
# Fusarium oxysporum [22] = assay: Antifungal activity against Fusarium oxysporum assessed as mycelial growth inhibition at 10 ppm at 28 +/-2 degC after 7 days by food poison technique; conditions: 168 h, read-out: GI
# Curvularia pallescens [23] = assay: Antifungal activity against Cochliobolus pallescens assessed as mycelial growth inhibition at 1000 ppm at 28 +/-2 degC after 7 days by food poison technique; conditions: 168 h, read-out: GI
# Curvularia pallescens [24] = assay: Antifungal activity against Cochliobolus pallescens assessed as mycelial growth inhibition at 100 ppm at 28 +/-2 degC after 7 days by food poison technique; conditions: 168 h, read-out: GI
smiles,measurement,setting,value
CCOP(=S)(OCC)O/C(COc1ccc(Cl)cc1)=N\N=C1/C(=O)Nc2ccccc21,MIC,Curvularia pallescens [1],1000 µg/mL
same,inhibition of growth at 100 ppm,Colletotrichum falcatum [2],90.2%
same,Ratio,Colletotrichum falcatum [3],2
same,inhibition of growth at 1000 ppm,Fusarium oxysporum [4],100%
same,inhibition of growth at 10 ppm,Colletotrichum falcatum [5],80.5%
same,Ratio,Fusarium oxysporum [6],2
same,Ratio,Curvularia pallescens [7],2
same,inhibition of growth at 100 ppm,Fusarium oxysporum [8],89.2%
same,MIC,Fusarium oxysporum [9],1000 µg/mL
same,MIC,Colletotrichum falcatum [10],1000 µg/mL
same,Ratio,Curvularia pallescens [11],2
same,Ratio,Colletotrichum falcatum [12],2
same,Ratio,Curvularia pallescens [13],2
same,inhibition of growth at 10 ppm,Curvularia pallescens [14],78.2%
same,Ratio,Fusarium oxysporum [15],2
same,Ratio,Fusarium oxysporum [16],2
same,Ratio,Colletotrichum falcatum [17],2
same,Ratio,Fusarium oxysporum [18],2
same,Ratio,Curvularia pallescens [19],2
same,inhibition of growth at 1000 ppm,Colletotrichum falcatum [20],100%
same,Ratio,Colletotrichum falcatum [21],2
same,inhibition of growth at 10 ppm,Fusarium oxysporum [22],80%
same,inhibition of growth at 1000 ppm,Curvularia pallescens [23],100%
same,inhibition of growth at 100 ppm,Curvularia pallescens [24],84.8%
